Assay results published in patent US11097016B2, “Use of lyso-Gb1 as druggable target” (Centogene GmbH, priority 2016, dated 2021).
“Also recorded” adds a separate entry of the source.

What was measured:
[1] = Lyso-Gb1 determination in organs (LC/MRM-MS); format: in vivo, C57BL/6JRj mice
Experimental: After extraction from the animal, the organs were immediately deep-frozen in liquid nitrogen. The samples were lyophilized (Alpha 2-4 LSC, Christ, Osterode am Harz, GER) and powdered with mortar and pistil. Fractions of 2 to 5 mg powder were established in round bottom tubes. On top of the powder, 50 μl per mg powder extraction solution was added and the sample was incubated for 5 minutes at 37° C. under agitation. Subsequently, the samples were frozen in liquid nitrogen for 30 seconds and sonicated with boost function for 5 minutes. The incubation, freezing and sonication steps were repeated 6 times. At the end the mixtures were vortexed and aliquots of 25 μl suspension were used for the lyso-Gb1 determination. Each sample was supplemented with 100 μl Internal Standard (lyso-Gb2, 200 ng/ml) and 250 μl ethanol. The samples were cooled at 4° C. for 1 h to precipitate the membrane proteins and spun in a benchtop centrifuge for 3 minutes at 14.5 krpm. The volume of each sample was quantitatively transferred to a 96-well filter plate and further processed as described above.
(§1) LC-MRM-MS analyses of the lyso-Gb1 for both DBS and organ extracts were performed using a Waters Acquity UPLC (Waters, UK) coupled with an ABSciex 5500 TripleQuad mass spectrometer (ABSciex, Darmstadt, Germany). Chromatographic run was performed on a C8 column with pore size of 3 mM (ACE columns, Germany) using a flow rate of 0.9 ml/min preheated at 60° C. The 10 μl extract were injected on the column and the compounds were eluted using a linear gradient from 40% A (50 mM formic acid in water) to 100% B (50 mM formic acid in acetone:acetonitrile vol. 1:1). Upstream from UPLC a 3:1 flow splitter was added. The following MRM transitions were monitored: 624.3-282.2 for the internal standard (with DP of 30V, CE of 38 V and CXP of 10 V) and 462.3→282.2 for lyso-Gb1 (with DP of 28V, CE of 30 V and CXP of 10 V). MRM-MS analyses were performed in positive ion mode using the following parameters: CUR gas 40 psi, IS voltage 5.5 kV, CAD 8 psi, cone temperature 500° C., GS 1 45 psi, GS2 60 psi, EP 10 V. For all batches analyzed a standard curve was measured using 7 dilutions of lyso-Gb1 in ethanol (concentrations in ng/ml: 0; 5; 10; 50; 100; 200; 1000).
After 4 weeks from treatment start the organs of the mice were subjected to lyso-Gb1 analysis.

[2] = General health, body weight and behaviour during treatment; format: in vivo, C57BL/6JRj mice
Experimental: (§2) Animal experimental procedures were carried out at Pharmacelsus GmbH, Saarbrücken, Germany. Adult male C57BL/6JRj mice (10 weeks old, purchased from Janvier Labs, France) were housed in a temperature-controlled room (20-24° C.) and maintained in a 12 h light/12 h dark cycle. Food (Ssniff® R/M-H, 10 mm) and water were provided ad libitum.
Ten weeks old C57BL/6JRj mice were subcutaneously treated with high doses (10 mg*kg−1*day−1) of lyso-Gb1 for a period of up to 84 days (12 weeks).

F4/80 and CD68 = test: Western blot of inflammatory tissue markers F4/80 and CD68 in spleen and liver; format: in vivo, C57BL/6JRj mice
Experimental: Livers and spleens were homogenized in RIPA buffer containing proteinase and phosphatase inhibitor (Roche, Mannheim, GER). Lysates were centrifuged at 15,000 g, 4° C. for 15 min to remove insoluble pellet, and supernatant was collected. Protein concentration was measured using Pierce BCA Protein Assay Kit (Thermo Fisher Scientific, Waltham, Mass.). Typically, […] protein was loaded for electrophoresis on a 4%-15% precast Tris-glycine gradient gel (BioRad, Mannheim, GER). The protein was subsequently transferred to a nitrocellulose membrane by semidry transfer apparatus (BioRad, Munich, GER) for immunodetection analysis. The target proteins were detected by rat anti F4/80 (1:500, Biolegend, San Diego, Calif.), rat anti-CD68 [FA-11] (1:200 abcam, Cambridge, UK) mouse anti GAPDH (1:10,000, abcam, Cambridge, UK), each in TBST supplemented with 5% skim milk powder (Sigma Aldrich, Munich, GER). Fluorescent conjugate secondary antibodies were applied for the detection with a Li-Cor Odyssey imaging system (Bad Homburg, GER).
In order to investigate the molecular changes of both spleen and liver in terms of tissue inflammation macrophagic marker proteins F4/80 and CD68 were analysed.

[3] = Blood count analysis for systemic damage; format: in vivo, C57BL/6JRj mice
Experimental: Mice were exsanguinated via the retrobulbar venous plexus under isoflurane anesthesia before being sacrificed by overdose inhalation. 200 μL EDTA samples of whole blood were drawn from each animal to analyze […], leukocyte count, erythrocyte count, hemoglobin (Hb), hematocrit (PCV=packed cell volume, Hct), mean cell volume (MCV), mean cell Hb (MCH), mean cell Hb concentration. (MCHC) and platelet count (PLT) (IDEXX Bioresearch, Ludwigsburg, Germany).
3.1 It was tested whether the high lyso-Gb1 levels caused systemic damage to the animals. Such systemic damage was assessed by blood count analysis.

[4] = test system: CD68 and F4/80 positive cells; test: Immunohistochemistry of spleen sections (anti-CD68, anti-F4/80); format: in vivo, C57BL/6JRj mice
Experimental: For immunohistochemistry 5 μm paraffin sections of the spleens of 8-week treated mice were subjected to rat anti-CD68 clone FA-11 (1:100, Bio-Rad Laboratories, Raleigh, N.C., USA) and rat anti-mouse F4/80 Cl:A3-1 (1:100, BioLegend, San Diego, Calif., USA). Sections were then deparaffinised, rehydrated and pre-treated in the microwaves in 0.1 M citrate buffer (5 min 850 W and 5 min 340 W) followed by consecutive incubation with 3% H2O2 in PBS to block endogenous peroxidases for 30 min, then 3% bovine serum albumin with 1.5% normal goat serum (NGS) in PBS for 1 h to block nonspecific epitopes. Subsequently, sections were exposed to the primary antibody in 3% NGS/PBS overnight at 4° C. Depending on the primary antibody and after washing in PBS, the sections were sequentially incubated for 1 h with the secondary anti-rat or anti-mouse IgG (1:200; Vector, Burlingame, Calif., USA), streptavidin-biotin-complex (ABC) reagent for 1 h (Vectastain-Elite; Vector, Burlingame, Calif., USA) and then finally visualised with 3,-3,-diaminobenzidine (DAB, Sigma, Munich, Germany), which was activated with H2O2. Sections were counterstained with hematoxylin, dehydrated, mounted with DePeX and coverslipped.

[5] = Histopathological evaluation (H&E) of spleen, liver and femur; format: in vivo, C57BL/6JRj mice; conditions: data not shown
Experimental: After removal, organs were fixed in formalin for 24 h and transferred into 70% ethanol. To ensure a non-biased comparison the same parts of organs were analysed by HISTALIM (Montpellier, France). The samples were processed on the Peloris automaton (Leica, Wetzlar, Germany) according to the 4 h program validated for mouse organs. The samples were embedded in paraffin wax according to HISTALIM procedures. For the liver, spleen and femur samples, a section (3-5 μm thickness) was prepared and deposited preferentially on Superfrost+slide (to ensure tissue adhesion) to be stained according to a validated hematoxylin/eosin (H&E) protocol. All the slides were digitalised with the Nanozoomer scanner (Hamamatsu Photonics, Hamamatsu, Japan) in conditions bright field conditions, with the objective×20, without Z stack. Slides were examined by a senior histopathologist to assess the toxicological effects of lyso-Gb1 on the tested mice.

TNF-α and IL-1β = test: Cytokine analysis in blood (ProcartaPlex Multiplex Immunoassay); format: in vivo, mice
Experimental: The ProcartaPlex® Multiplex Immunoassay (ebioscience, San Diego, Calif.) was carried out following the instructions of the provider. Differences between the animal groups were obtained using automated MAGPIX® analysis device software (Luminex, Austin, Tex.) including quality control criteria.

Organ weight analysis = format: in vivo, C57BL/6JRj mice
Experimental: (§3) Blood sampling was carried out using Li-heparine blood obtained from the lateral tail vein. At each sampling time point 2 aliquots of 20 μl were transferred to dried blood spot filter cards (Centogene AG, Rostock, Germany). After the last sampling time point the mice were sacrificed by inhalation of an overdose of isoflurane and organs were removed, frozen and collected for future examinations. Where applicable, organs were intersected. Half of the organ was immediately frozen in liquid nitrogen. The other half was formalin-fixed and paraffin-embedded for histologic analysis (Histalim, Montpellier, France).
3.2 As anemia is a frequent result of enlarged spleen, another hallmark of Gaucher disease, an organ weight analysis, a Western blot analysis and size and color analysis of the spleen was carried out. The results thereof are shown in FIG. 4A, FIG. 4B and FIG. 4C.

[6] = Lyso-Gb1 in 24 hr urine (LC/MRM-MS); format: in vivo, C57BL/6JRj mice; conditions: 6 weeks after treatment start
Experimental: 25 μL urine aliquots were added to 100 μL of internal standard and 250 μL ethanol. The samples were cooled to 4° C. for 1 h to precipitate the urine proteins, after which they were spun in a benchtop centrifuge for 3 minutes at 14,500 rpm. The volume of each sample was quantitatively transferred to a 96-well plate, and further processed as described above.
as §1, with “The 10 μl extract were injected on the column and the compounds were eluted using a linear gradient from 40% A (50 mM formic acid in water) to 100% B (50 mM formic acid in acetone:acetonitrile vol. 1:1). Upstream from UPLC a 3:1 flow splitter was added.” left out

[7] = Lyso-Gb1 level in blood (dried blood spots, LC/MRM-MS) upon continuous subcutaneous administration; format: in vivo, C57BL/6JRj mice
Experimental: as §2
All experimental procedures were approved by and conducted in accordance with the regulations of the local Animal Welfare authorities. The lyso-Gb1 stock solution was prepared in DMSO and propylene glycol at 37° C. with ultrasonic bath treatment for 10 min. Subcutaneous administration of lyso-Gb1 (Matreya LLC, USA) was achieved by the use of ALZET pumps implanted in the back of their necks and set to a flow rate of 2.64 μl/day in order to obtain a daily dosage of 10 mg lyso-Gb1/kg body weight. The pumps were loaded with the stock solution and primed prior to implantation according to the manufacturer's instructions.
as §3
3 punches of 3.2 mm in diameter were cut using a DBS puncher (Perkin Elmer LAS, Germany) and placed in a 2.2 ml round bottom tube (Eppendorf, Germany). 50 μl extraction solution (DMSO: water, 1:1) and 100 μI internal standard solution with the standard being dissolved in ethanol were added on top of the paper punches. Samples were mixed for 30 seconds and placed in an incubator (Heidolph, Schwabach, Germany) for 30 minutes at 37° C. under agitation at 700 rpm. […]
as §1, with “Chromatographic run was performed on a C8 column with pore size of 3 mM (ACE columns, Germany) using a flow rate of 0.9 ml/min preheated at 60° C. The 10 μl extract were injected on the column and the compounds were eluted using a linear gradient from 40% A (50 mM formic acid in water) to 100% B (50 mM formic acid in acetone:acetonitrile vol. 1:1). Upstream from UPLC a 3:1 flow splitter was added.” left out, “1000). […]” for “1000).”

organ with highest lyso-Gb1 levels ([1]; 4 weeks from treatment start): kidney and liver | lyso-Gb1 levels in peripheral organs (heart, kidney, liver, spleen) compared to control animals ([1]; 4 weeks from treatment start, 10 mg*kg^−1*day^−1): strongly elevated | increase of brain lyso-Gb1 ([1]; 4 weeks from treatment start, attributed to carryover of blood in tissue capillaries): 2 fold | F4/80 and CD68 protein levels in liver (Western blot) (F4/80 and CD68; liver): only mild changes | number of CD68 and F4/80 positive cells in spleen sections in comparison to vehicle controls ([4]; paraffin sections from spleen): marked increase | CD68-immunoreactivity in spleen compared to vehicle controls ([4]; spleens of 8-week treated mice): strong increase | F4/80 immunoreactivity in spleen compared to vehicle controls ([4]; spleens of 8-week treated mice): increased | H&E histological stain of spleen, liver and femur, vehicle vs lyso-Gb1 treated [5]: did not reveal significant abnormalities | TNF-α and IL-1β in the blood (TNF-α and IL-1β): slight elevation | upregulation of most investigated cytokines (TNF-α and IL-1β): did not find significant upregulation | spleen weight versus controls (Organ weight analysis; 8 and 12 weeks from treatment initiation): enlarged | liver size in subsequent experiment (Organ weight analysis; lyso-Gb1 treatment started earlier (P20), data not shown): marked enlargement of the liver | size of heart, lung and kidney (Organ weight analysis; mouse, in vivo): normal in size | calculated excretion rate of lyso-Gb1 in urine [6]: 0.6 ng/min | lyso-Gb1 levels in blood ([7]; 24 hrs after treatment start (data not shown)): strongly elevated | increase of blood lyso-Gb1 level compared to the vehicle-treated mice ([7]; after 4, 8 and 12 weeks, s.c. 10 mg/kg/day): more than 500 fold | lyso-Gb1 level in blood ([7]; after 4, 8 and 12 weeks, s.c. osmotic pump, 10 mg lyso-Gb1/kg body weight daily): 700 to 900 ng/mL | concentration at 4 weeks ([7]; male, C57BL/6JRj, mouse, whole blood (dried blood spots), sc, 10 mg/kg/day, 4 weeks after begin of treatment, s.c. 10 mg*kg−1*day−1): > 500 ng/mL
SMILES: CCCCCCCCCCCCC/C=C/[C@@H](O)[C@@H](N)CO[C@@H]1O[C@H](CO)[C@@H](O)[C@H](O)[C@H]1O [lyso-Gb1, glucosylsphingosine]
crossing of the blood brain barrier ([1]; concluded from negligible increase in brain lyso-Gb1): not able to cross the blood brain barrier | behaviour ([2]; mouse, in vivo): no behavioral abnormalities | body weight / health status ([2]; throughout the experimental phase (up to 12 weeks)): did not lose weight | F4/80 and CD68 protein levels in spleen (Western blot) (F4/80 and CD68; spleen): pronounced increase; also recorded: elevated | Hb (hemoglobin) values ([3]; 4, 8 and 12 weeks, 2× SD below the baseline value at each time point): mild anemia; also recorded: mild anaemia | Hct (haematocrit) values ([3]; differed at 4 and 8 weeks after treatment initiation): significantly differed; also recorded: lowered | thrombocytopenia / white blood cell abnormalities ([3]; up to 12 weeks treatment): no thrombocytopenia or abnormalities in white blood cells | liver weight versus controls (Organ weight analysis; 8 and 12 weeks): not statistically significantly different; also recorded: not statistically distinct from control animals
